Test results reported in article PMC8391421, “Identification of Novel Positive Allosteric Modulators of Neurotrophin Receptors for the Treatment of Cognitive Dysfunction” (Cells, 2021).
“Also recorded” adds a separate entry of the source.

Key:
full-length TrkA-HA = molecular target: T1, full-length TrkA-HA (Homo sapiens, UniProt P04629); experiment: Kinase activity assay of immunoprecipitated HA-tagged full length TrkA (LANCE TR-FRET); type: biochemical; conditions: 5 µM compound, increasing ATP, vs DMSO
T1 construct: Full-length TrkA with a HA-tag (TrkA-HA) fused to the C-terminus; A6 used the anti-HA immunoprecipitate and A14 the 12,000 x g lysate supernatant
Procedure: A cDNA expression plasmid (pCMV3) with C-terminal-HA tagged human NTRK1 cDNA subcloned between the HindIII and XbaI sites was obtained from SinoBiological (NordicBiosite, Sweden). The human neuroblastoma cell line SH-SY5Y (ATCC, LGC Standards GmbH, Wesel, Germany) was transfected with lipofectamine 3000 and 2 µg of the plasmid. Hygromycin was used for the selection, and expansion of the TrkA-positive clones were performed using 200 µg/mL of Hygromycin. A clone with stable TrkA–HA expression was used for protein expression. Briefly, SH-SY5Y-TrkA-HA cells were seeded in T175cm2 flasks and grown until confluency. A total of 10 flasks were used for each experiment. Cells were detached using Accutase and washed twice with Dulbecco’s PBS through centrifugation. The final cell pellet was resuspended in 2 mL lysis buffer (FNN0011, Thermo Fisher Scientific, Gothenburg, Sweden) supplemented with protease and phosphatase inhibitors and 1 mM DTT. The cell suspension was sonicated with a probe sonicator at 40% amplitude for 2 × 5 s. The resulting homogenate was centrifuged for 10 min at 12,000× g. […] TR-FRET was measured using an excitation wavelength of 340 nm and an emission wavelength of 665 nm with an iD5 plate reader (Molecular Devices, Berkshire, RG41 5TS UK). […]

C57BL/6J mice = experiment: Morris water maze; type: in vivo, mouse
Procedure: Male C57BL/6J mice (n = 8/group) from Taconic, Lille Skensved, Denmark, 7–8 weeks of age at arrival, were used in experiments that were predominantly performed as described previously. Vehicle or ACD855 (3 mg/kg; formulated in 20% DMSO in 0.1 M sodium phosphate buffer pH 8.0) was administered daily for the first four days (Day 1–4) through subcutaneous (s.c.) injections (10 mL/kg body weight). During the behavioral training days (Day 5–10), ACD855 or vehicle was administered s.c. 60 min prior to training. Moreover, during the behavioral training days, scopolamine (0.3 mg/kg) or vehicle was administered s.c. 30 min prior to training.

T1 sequence (P04629 33-796): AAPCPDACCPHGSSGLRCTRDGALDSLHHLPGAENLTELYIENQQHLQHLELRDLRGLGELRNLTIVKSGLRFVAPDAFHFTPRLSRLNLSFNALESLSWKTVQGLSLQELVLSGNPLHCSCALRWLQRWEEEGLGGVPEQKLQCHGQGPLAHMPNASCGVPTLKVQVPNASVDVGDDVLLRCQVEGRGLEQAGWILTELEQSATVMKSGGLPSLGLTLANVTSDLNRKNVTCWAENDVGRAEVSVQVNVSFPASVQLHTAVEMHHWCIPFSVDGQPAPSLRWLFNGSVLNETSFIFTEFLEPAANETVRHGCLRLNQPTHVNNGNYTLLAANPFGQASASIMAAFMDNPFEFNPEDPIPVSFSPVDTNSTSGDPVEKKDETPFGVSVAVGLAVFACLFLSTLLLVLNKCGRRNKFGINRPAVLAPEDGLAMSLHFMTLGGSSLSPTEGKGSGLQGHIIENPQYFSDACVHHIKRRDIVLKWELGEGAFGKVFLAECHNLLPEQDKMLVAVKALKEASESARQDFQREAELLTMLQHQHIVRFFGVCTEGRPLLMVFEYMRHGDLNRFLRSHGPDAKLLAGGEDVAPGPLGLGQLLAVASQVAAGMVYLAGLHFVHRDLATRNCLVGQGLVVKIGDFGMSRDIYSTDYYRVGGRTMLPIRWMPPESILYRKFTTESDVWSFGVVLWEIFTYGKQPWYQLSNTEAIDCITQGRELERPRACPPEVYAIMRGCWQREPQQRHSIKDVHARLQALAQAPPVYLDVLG

Cc1cc(-n2c(=O)[nH]c(=O)n(C)c2=O)ccc1Oc1ccc(S(=O)(=O)C(F)(F)F)cc1 [ACD855, Toltrazuril-sulfone]
effect on Vmax(app) of TrkA (full-length TrkA-HA): significantly increase | effect of compound by itself on cognitive function (swim latency, Day 1) (C57BL/6J mice; 3 mg/kg s.c., no scopolamine, vs vehicle): seemed to improve cognitive function compared to vehicle; also recorded: improved cognitive function compared to vehicle | effect on scopolamine-induced cognitive impairment (swim latency) (C57BL/6J mice; 3 mg/kg s.c., scopolamine 0.3 mg/kg): significantly blocked; also recorded: completely blocked | retention test (probe trial) (C57BL/6J mice; control vs treated groups): only an improvement trend | swim speed (C57BL/6J mice; control vs treated groups): no significant differences
